From publication PMC10652874, “Investigation into the mechanism of action of the antimicrobial peptide epilancin 15X” (Frontiers in Microbiology, 2023)

Test system: S. carnosus TM300
Test: RNAseq differential gene expression
Format: cell-based, Staphylococcus carnosus
Experimental: For the RNAseq experiments, epilancin was added at sub-lethal concentration (0.5x MIC) to S. carnosus TM300 once the cultures reached an OD600 of 0.6. RNA was extracted 40 min after the treatment, using a FastRNA Pro Blue kit (MP Biomedicals). Both treated and parallel untreated samples were collected at the same time. Sequencing was performed at the Carver Biotechnology Center (UIUC). For RNAseq analysis, gene counts were read in to R (v3.1.1; [Team, 2014]), and 14/2441 genes were removed because they had fewer than 32 total counts across the six samples. edgeR’s (v3.6.7) TMM normalization ([Robinson and Oshlack, 2010]) plus negative binomial generalized log-linear model ([McCarthy et al., 2012]) was used to test for differential expression between treated and untreated groups, while accounting for pairing of U and T replicates from three different cultures. p-values were adjusted using the false discovery rate method ([Benjamini and Hochberg, 1995]).

Substance: Epilancin 15X
- fold_change (gene ileS, isoleucyl-tRNA synthetase): 0.47
- fold_change (gene kbl, 2-amino-3-ketobutyrate coenzyme A ligase): 0.46
- fold_change (gene mnhA, monovalent cation/H+ antiporter subunit A): 0.48
- fold_change (gene murC, UDP-N-acetylmuramate--L-alanine ligase): 0.4
- fold_change (gene ndk, nucleoside diphosphate kinase): 0.44
- fold_change (gene nirC, NirC protein): 0.43
- fold_change (gene nos, nitric oxide synthase oxygenase): 0.43
- fold_change (gene opuAC, putative glycine betaine ABC transporter substrate-binding protein): 0.43
- fold_change (gene pmi, mannose-6-phosphate isomerase): 0.42
- fold_change (gene potA, putative spermidine/putrescine import ATP-binding protein PotA): 0.41
- fold_change (gene prmC (SCA_1620), hypothetical protein): 0.48
- fold_change (gene ptsG (glcA), glucose-specific phosphotransferase system enzyme II, factor IIA): 0.42
- fold_change (gene purA, adenylosuccinate synthetase): 0.45
- fold_change (gene purB, adenylosuccinate lyase): 0.41
- fold_change (gene rex (SCA_1553), redox-sensing transcriptional repressor Rex): 0.42
- fold_change (gene rimM, 16S rRNA-processing protein RimM): 0.44
- fold_change (gene rplE, 50S ribosomal protein L5): 0.47
- fold_change (gene rplF, 50S ribosomal protein L6): 0.48
- fold_change (gene rplJ, 50S ribosomal protein L10): 0.48
- fold_change (gene rplL, 50S ribosomal protein L7/L12): 0.48
- fold_change (gene rplR, 50S ribosomal protein L18): 0.47
- fold_change (gene rplX, 50S ribosomal protein L24): 0.48
- fold_change (gene rpmD, 50S ribosomal protein L30): 0.48
- fold_change (gene rpmG, 50S ribosomal protein L33): 0.42
- fold_change (gene rpsE, 30S ribosomal protein S5): 0.48
- fold_change (gene rpsF, 30S ribosomal protein S6): 0.42
- fold_change (gene rpsH, 30S ribosomal protein S8): 0.48
- fold_change (gene rpsR, 30S ribosomal protein S18): 0.47
- fold_change (gene rpsT, 30S ribosomal protein S20): 0.44
- fold_change (gene sdhB, succinate dehydrogenase iron-sulfur subunit): 0.41
- fold_change (gene trmD, tRNA (guanine-N(1)-)-methyltransferase): 0.44
- fold_change (gene trpD, anthranilate phosphoribosyltransferase): 0.4
- fold_change (gene trpS, tryptophanyl-tRNA synthetase): 0.47
- fold_change (gene tyrA, prephenate dehydrogenase): 0.41
- fold_change dps (general stress protein 20U): 6.95
- fold_change Sca_1447 (glycosyltransferase): 3.57
- fold_change Sca_0051 (glyoxalase/bleomycin resistance protein/dioxygenase superfamily protein): 6.15
- fold_change Sca_0808 (glyoxalase/bleomycin resistance protein/dioxygenase superfamily protein (fragment 2)): 2.14
- fold_change gloA (glyoxylase family protein): 3.75
- fold_change grpE (heat shock protein GrpE): 2.94
- fold_change vraS (histidine kinase sensor): 7.95
- fold_change Sca_0031 (hypothetical protein): 3.09
- fold_change Sca_0046 (hypothetical protein): 2.17
- fold_change Sca_0052 (hypothetical protein): 5.71
- fold_change Sca_0054 (hypothetical protein): 2.52
- fold_change Sca_0067 (hypothetical protein): 4.42
- fold_change Sca_0071 (hypothetical protein): 7.07
- fold_change Sca_0072 (hypothetical protein): 7.15
- fold_change Sca_0096 (hypothetical protein): 3.48
- fold_change Sca_0097 (hypothetical protein): 2.35
- fold_change Sca_0098 (hypothetical protein): 2.28
- fold_change Sca_0100 (hypothetical protein): 2.47
- fold_change Sca_0114 (hypothetical protein): 3.35
- fold_change Sca_0117 (hypothetical protein): 2.03
- fold_change Sca_0128 (hypothetical protein): 0.49
- fold_change Sca_0133 (hypothetical protein): 2.43
- fold_change Sca_0179 (hypothetical protein): 5.25
- fold_change Sca_0238 (hypothetical protein): 5.63
- fold_change Sca_0248 (hypothetical protein): 3.2
- fold_change Sca_0264 (hypothetical protein): 2.54
- fold_change Sca_0265 (hypothetical protein): 3.04
- fold_change Sca_0279 (hypothetical protein): 2.02
- fold_change Sca_0299 (hypothetical protein): 4.24
- fold_change Sca_0324 (hypothetical protein): 2.17
- fold_change Sca_0328 (hypothetical protein): 6.61
- fold_change Sca_0329 (hypothetical protein): 5.2
- fold_change Sca_0356 (hypothetical protein): 4.74
- fold_change Sca_0422 (hypothetical protein): 2.12
- fold_change Sca_0454 (hypothetical protein): 3.4
- fold_change Sca_0459 (hypothetical protein): 3.3
- fold_change Sca_0468 (hypothetical protein): 2.78
- fold_change Sca_0471 (hypothetical protein): 4
- fold_change Sca_0472 (hypothetical protein): 3.68
- fold_change Sca_0473 (hypothetical protein): 4.68
- fold_change Sca_0474 (hypothetical protein): 4.61
- fold_change Sca_0477 (hypothetical protein): 4.52
- fold_change Sca_0478 (hypothetical protein): 3.97
- fold_change Sca_0481 (hypothetical protein): 4.58
- fold_change Sca_0482 (hypothetical protein): 3.77
- fold_change Sca_0483 (hypothetical protein): 3.93
- fold_change Sca_0484 (hypothetical protein): 3.96
- fold_change Sca_0485 (hypothetical protein): 3.21
- fold_change Sca_0487 (hypothetical protein): 4.14
- fold_change Sca_0488 (hypothetical protein): 2.02
- fold_change Sca_0489 (hypothetical protein): 2.6
- fold_change Sca_0490 (hypothetical protein): 2.76
- fold_change Sca_0491 (hypothetical protein): 2.13
- fold_change Sca_0525 (hypothetical protein): 2.45
- fold_change Sca_0529 (hypothetical protein): 2.16
- fold_change Sca_0643 (hypothetical protein): 3.47
- fold_change Sca_0647 (hypothetical protein): 2.16
- fold_change Sca_0648 (hypothetical protein): 2.05
- fold_change Sca_0666 (hypothetical protein): 5.78
- fold_change Sca_0700 (hypothetical protein): 2.96
- fold_change Sca_0703 (hypothetical protein): 5.58
- fold_change Sca_0752 (hypothetical protein): 2.97
- fold_change Sca_0778 (hypothetical protein): 3.33
- fold_change Sca_0834 (hypothetical protein): 3.67
- fold_change Sca_0844 (hypothetical protein): 5.22
- fold_change Sca_0862 (hypothetical protein): 2.79
- fold_change Sca_0868 (hypothetical protein): 2.53
- fold_change Sca_0877 (hypothetical protein): 2.02
- fold_change Sca_0934 (hypothetical protein): 3.62
- fold_change Sca_0935 (hypothetical protein): 2.43
- fold_change Sca_0959 (hypothetical protein): 2.05
- fold_change Sca_0965 (hypothetical protein): 2.37
- fold_change Sca_0993 (hypothetical protein): 2.38
- fold_change Sca_1021 (hypothetical protein): 2.3
- fold_change Sca_1081 (hypothetical protein): 2.09
- fold_change Sca_1154 (hypothetical protein): 2.08
- fold_change Sca_1155 (hypothetical protein): 2.03
- fold_change Sca_1209 (hypothetical protein): 3.24
- fold_change Sca_1210 (hypothetical protein): 2.68
- fold_change Sca_1212 (hypothetical protein): 2.1
- fold_change Sca_1236 (hypothetical protein): 5.11
- fold_change Sca_1237 (hypothetical protein): 5.24
- fold_change Sca_1261 (hypothetical protein): 4.39
- fold_change Sca_1262 (hypothetical protein): 4.13
- fold_change Sca_1263 (hypothetical protein): 3.92
- fold_change Sca_1265 (hypothetical protein): 6.01
- fold_change Sca_1328 (hypothetical protein): 2.71
- fold_change Sca_1396 (hypothetical protein): 2.4
- fold_change Sca_1420 (hypothetical protein): 2.04
- fold_change Sca_1461 (hypothetical protein): 6.62
- fold_change Sca_1500 (hypothetical protein): 2.03
